In brackets after ≈: the same amount, converted by molar mass.
Assays:
E. coli BW25113 = experiment: Minimum inhibitory concentration (MIC) of DOX for E. coli BW25113 ancestor and end-point isolates; format: cell-based
Description: Experimental protocol. Five populations of E. coli were adapted to DOX in flasks to identify the selection gradient for adaptation to DOX. On the first day, six different colonies were used to inoculate control and five populations containing fresh media. The growth media for E. coli was Lysogeny broth (LB; 10 g/l tryptone, 5 g/l yeast extract, 5 g/l sodium chloride). The following day, each population was transferred to fresh media containing 1 μg/ml DOX with 100-fold dilutions. The fresh media containing desired DOX concentration was prepared by appropriate dilution of DOX stock solution. The stock solution was prepared by dissolving DOX (Tokyo Chemical Industry Co., LTD, Japan) in water, followed by filter sterilization through a 0.22 μm filter (Millex-GP, Millipore, Bedford, MA). The following day, each population was transferred to three tubes containing 1×, 1.5×, and 2× of the current DOX concentration. Hereafter, each population with the best growth was transferred into three new tubes while the control population was propagated in fresh media until twice the DOX clinical breakpoint (16 μg/ml) was reached. In a similar way, on the first day of serial transfer of E. coli to DOX in microdroplets, four to six different colonies were used to inoculate control and three to five populations containing fresh media. The following day, the growth media containing a starting size of ˜2.6×10^6 cells/ml was prepared for each population through appropriate dilution of overnight culture. Fluorinated oil (Novec 7500, 3M, St Paul, MN) with 1.5 w/w % surfactants (Pico-Surf 1™, Sphere Fluidics, Cambridge, UK) was the continuous phase while the growth media containing E. coli was the dispersed phase. These prepared continuous and dispersed phases were injected into four to six microfluidic chips using twelve-multi channel syringe pumps (New Era Pump Systems, Farmingdale, NY) with determined flow rates. More than 800 μl droplets for each population were collected in either a 1.5 ml microfuge tube or a 50 ml tube for the incubation at 37° C. After incubation for 24 h, these droplets were chemically broken with a demulsifier (1H, 1H, 2H, 2H-Perfluorooctanol, >97%, Alfa Aesar, Ward Hill, MA). After OD measurement, cells were propagated by dilution in fresh growth media containing higher DOX concentrations until a concentration of 16 μg/ml. Experiment images were captured using a bright-field inverted microscope (Eclipse Ti2, Nikon, Japan) with a mounted high-speed camera (Phantom V7.2).
At the end of the experiment, individual end-point isolates were isolated randomly by streaking the entire population onto non-selective, nutrient-rich agar plates. End point isolates are defined as randomly selected, independent colonies derived from an evolved population. Since evolved populations are diverse, each end point isolate could potentially have different genotypes. A minimum of three end-point isolates was subjected to whole genome sequencing from each experimental evolution study. In addition, total genomic DNA for each evolved population was isolated and subjected to metagenomic analysis to identify the allelic frequency in the final populations (Dataset S1-S6). The populations were sequenced to achieve at least 100× coverage and a threshold of 5% was used to identify mutations. Both serial transfer and microdroplet populations identified the well-known adaptive alleles marR, acrR, rpsJ and envZ^32-35 as well as the movement of an insertion element IS186 into the upstream regulatory region of the gene encoding the Lon protease (FIG. 17). […] Both methods clearly implicated regulation of the AcrAB-TolC as the fundamental driver for DOX resistance, but there were interesting differences in the evolutionary trajectories identified.

P. aeruginosa PAO1 = conditions: cited from earlier work
Enterobacter species = conditions: some Enterobacter species, after exposure to gradually increasing concentrations; cited from earlier work

C[C@H]1c2cccc(O)c2C(O)=C2C(=O)[C@]3(O)C(O)=C(C(N)=O)C(=O)[C@@H](N(C)C)[C@@H]3[C@@H](O)[C@@H]21 [DOX]
MIC of DOX (E. coli BW25113; F (batch), end-point isolate 1-1): >16 µg/mL
MIC of DOX (E. coli BW25113; F (batch), end-point isolate 1-2): 16 µg/mL
MIC of DOX (E. coli BW25113; F (batch), end-point isolate 1-3): 16 µg/mL
MIC of DOX (E. coli BW25113; F (batch), end-point isolate 2-1): 16 µg/mL
MIC of DOX (E. coli BW25113; F (batch), end-point isolate 2-2): 16 µg/mL
MIC of DOX (E. coli BW25113; F (batch), end-point isolate 2-3): >16 µg/mL
MIC of DOX (E. coli BW25113; F (batch), end-point isolate 3-1): 16 µg/mL
MIC of DOX (E. coli BW25113; F (batch), end-point isolate 3-2): 16 µg/mL
MIC of DOX (E. coli BW25113; F (batch), end-point isolate 3-3): 16 µg/mL
MIC of DOX (E. coli BW25113; F (batch), end-point isolate 4-1): 16 µg/mL
MIC of DOX (E. coli BW25113; F (batch), end-point isolate 4-2): 16 µg/mL
MIC of DOX (E. coli BW25113; F (batch), end-point isolate 4-3): >16 µg/mL
MIC of DOX (E. coli BW25113; F (batch), end-point isolate 5-1): 16 µg/mL
MIC of DOX (E. coli BW25113; F (batch), end-point isolate 5-2): >16 µg/mL
MIC of DOX (E. coli BW25113; F (batch), end-point isolate 5-3): >16 µg/mL
MIC of DOX (E. coli BW25113; F (batch), isolate C1 (no drug control)): 4 µg/mL
MIC of DOX (E. coli BW25113; F (batch), isolate C2 (no drug control)): 4 µg/mL
MIC of DOX (E. coli BW25113; F (batch), isolate C3 (no drug control)): 4 µg/mL
MIC of DOX for the ancestor (E. coli BW25113; ancestor E. coli BW25113): 4 µg/mL
MIC of DOX (E. coli BW25113; microemulsion D1, end-point isolate 1-1): 8 µg/mL
MIC of DOX (E. coli BW25113; microemulsion D1, end-point isolate 1-2): 8 µg/mL
MIC of DOX (E. coli BW25113; microemulsion D1, end-point isolate 1-3): 8 µg/mL
MIC of DOX (E. coli BW25113; microemulsion D1, end-point isolate 2-1): 16 µg/mL
MIC of DOX (E. coli BW25113; microemulsion D1, end-point isolate 2-2): 16 µg/mL
MIC of DOX (E. coli BW25113; microemulsion D1, end-point isolate 2-3): 16 µg/mL
MIC of DOX (E. coli BW25113; microemulsion D1, end-point isolate 3-1): 16 µg/mL
MIC of DOX (E. coli BW25113; microemulsion D1, end-point isolate 3-2): 16 µg/mL
MIC of DOX (E. coli BW25113; microemulsion D1, end-point isolate 3-3): 16 µg/mL
MIC of DOX (E. coli BW25113; microemulsion D1, end-point isolate 4-1): 16 µg/mL
MIC of DOX (E. coli BW25113; microemulsion D1, end-point isolate 4-2): >16 µg/mL
MIC of DOX (E. coli BW25113; microemulsion D1, end-point isolate 4-3): 16 µg/mL
MIC of DOX (E. coli BW25113; microemulsion D1, end-point isolate 5-1): 16 µg/mL
MIC of DOX (E. coli BW25113; microemulsion D1, end-point isolate 5-2): 16 µg/mL
MIC of DOX (E. coli BW25113; microemulsion D1, end-point isolate 5-3): 16 µg/mL
MIC of DOX (E. coli BW25113; microemulsion D1, isolate C1 (no drug control)): 4 µg/mL
MIC of DOX (E. coli BW25113; microemulsion D1, isolate C2 (no drug control)): 4 µg/mL
MIC of DOX (E. coli BW25113; microemulsion D1, isolate C3 (no drug control)): 4 µg/mL
MIC of DOX (E. coli BW25113; microemulsion D2, end-point isolate 1-1): 16 µg/mL
MIC of DOX (E. coli BW25113; microemulsion D2, end-point isolate 1-2): 16 µg/mL
MIC of DOX (E. coli BW25113; microemulsion D2, end-point isolate 1-3): 16 µg/mL
MIC of DOX (E. coli BW25113; microemulsion D2, end-point isolate 2-1): 16 µg/mL
MIC of DOX (E. coli BW25113; microemulsion D2, end-point isolate 2-2): 16 µg/mL
MIC of DOX (E. coli BW25113; microemulsion D2, end-point isolate 2-3): 16 µg/mL
MIC of DOX (E. coli BW25113; microemulsion D2, end-point isolate 3-1): 16 µg/mL
MIC of DOX (E. coli BW25113; microemulsion D2, end-point isolate 3-2): 16 µg/mL
MIC of DOX (E. coli BW25113; microemulsion D2, end-point isolate 3-3): 16 µg/mL
MIC of DOX (E. coli BW25113; microemulsion D2, end-point isolate 4-1): 16 µg/mL
MIC of DOX (E. coli BW25113; microemulsion D2, end-point isolate 4-2): 16 µg/mL
MIC of DOX (E. coli BW25113; microemulsion D2, end-point isolate 4-3): 16 µg/mL
MIC of DOX (E. coli BW25113; microemulsion D2, end-point isolate 5-1): 16 µg/mL
MIC of DOX (E. coli BW25113; microemulsion D2, end-point isolate 5-2): 16 µg/mL
MIC of DOX (E. coli BW25113; microemulsion D2, end-point isolate 5-3): 16 µg/mL
MIC of DOX (E. coli BW25113; microemulsion D2, isolate C1 (no drug control)): 4 µg/mL
MIC of DOX (E. coli BW25113; microemulsion D2, isolate C2 (no drug control)): 4 µg/mL
MIC of DOX (E. coli BW25113; microemulsion D2, isolate C3 (no drug control)): 4 µg/mL
MIC of DOX (E. coli BW25113; microemulsion D3, end-point isolate 1-1): 16 µg/mL
MIC of DOX (E. coli BW25113; microemulsion D3, end-point isolate 1-2): 16 µg/mL
MIC of DOX (E. coli BW25113; microemulsion D3, end-point isolate 1-3): 16 µg/mL
MIC of DOX (E. coli BW25113; microemulsion D3, end-point isolate 2-1): 8 µg/mL
MIC of DOX (E. coli BW25113; microemulsion D3, end-point isolate 2-2): 16 µg/mL
MIC of DOX (E. coli BW25113; microemulsion D3, end-point isolate 2-3): 8 µg/mL
MIC of DOX (E. coli BW25113; microemulsion D3, end-point isolate 3-1): 16 µg/mL
MIC of DOX (E. coli BW25113; microemulsion D3, end-point isolate 3-2): 8 µg/mL
MIC of DOX (E. coli BW25113; microemulsion D3, end-point isolate 3-3): 16 µg/mL
MIC of DOX (E. coli BW25113; microemulsion D3, end-point isolate 4-1): 16 µg/mL
MIC of DOX (E. coli BW25113; microemulsion D3, end-point isolate 4-2): 16 µg/mL
MIC of DOX (E. coli BW25113; microemulsion D3, end-point isolate 4-3): 16 µg/mL
MIC of DOX (E. coli BW25113; microemulsion D3, end-point isolate 5-1): 16 µg/mL
MIC of DOX (E. coli BW25113; microemulsion D3, end-point isolate 5-2): 16 µg/mL
MIC of DOX (E. coli BW25113; microemulsion D3, end-point isolate 5-3): 16 µg/mL
MIC of DOX (E. coli BW25113; microemulsion D3, isolate C1 (no drug control)): 4 µg/mL
MIC of DOX (E. coli BW25113; microemulsion D3, isolate C2 (no drug control)): 4 µg/mL
MIC of DOX (E. coli BW25113; microemulsion D3, isolate C3 (no drug control)): 4 µg/mL
MIC of DOX (E. coli BW25113; microemulsion D4, end-point isolate 4-1): 16 µg/mL
MIC of DOX (E. coli BW25113; microemulsion D4, end-point isolate 4-2): 16 µg/mL
MIC of DOX (E. coli BW25113; microemulsion D4, end-point isolate 4-3): 16 µg/mL
MIC of DOX (E. coli BW25113; microemulsion D4, end-point isolate 5-1): 16 µg/mL
MIC of DOX (E. coli BW25113; microemulsion D4, end-point isolate 5-2): 16 µg/mL
MIC of DOX (E. coli BW25113; microemulsion D4, end-point isolate 5-3): 8 µg/mL
MIC of DOX (E. coli BW25113; microemulsion D4, isolate C1 (no drug control)): 4 µg/mL
MIC of DOX (E. coli BW25113; microemulsion D4, isolate C2 (no drug control)): 4 µg/mL
MIC of DOX (E. coli BW25113; microemulsion D4, isolate C3 (no drug control)): 4 µg/mL
MIC of DOX (E. coli BW25113; microemulsion D5, end-point isolate 1-1): 16 µg/mL
MIC of DOX (E. coli BW25113; microemulsion D5, end-point isolate 1-2): >16 µg/mL
MIC of DOX (E. coli BW25113; microemulsion D5, end-point isolate 1-3): 16 µg/mL
MIC of DOX (E. coli BW25113; microemulsion D5, end-point isolate 2-1): >16 µg/mL
MIC of DOX (E. coli BW25113; microemulsion D5, end-point isolate 2-2): 16 µg/mL
MIC of DOX (E. coli BW25113; microemulsion D5, end-point isolate 2-3): 16 µg/mL
MIC of DOX (E. coli BW25113; microemulsion D5, end-point isolate 3-1): >16 µg/mL
MIC of DOX (E. coli BW25113; microemulsion D5, end-point isolate 3-2): 16 µg/mL
MIC of DOX (E. coli BW25113; microemulsion D5, end-point isolate 3-3): >16 µg/mL
MIC of DOX (E. coli BW25113; microemulsion D5, isolate C1 (no drug control)): 4 µg/mL
MIC of DOX (E. coli BW25113; microemulsion D5, isolate C2 (no drug control)): 4 µg/mL
MIC of DOX (E. coli BW25113; microemulsion D5, isolate C3 (no drug control)): 4 µg/mL

O=C(N[C@H](CO)[C@H](O)c1ccc([N+](=O)[O-])cc1)C(Cl)Cl [chloramphenicol]
MIC (P. aeruginosa PAO1): 32 µg/mL (≈ 99 µM)

benzalkonium chloride
increase in minimum inhibitory concentration (Enterobacter species): 5-300 fold

From patent US20230295560A1, “SYNTHETIC ECOLOGIES FOR DRUG DISCOVERY” (priority 2021, published 2023)
